The results in this text go back to US6417212B1, “Modulators of peroxisome proliferator activated receptors” (Eli Lilly & Company, priority 1999, dated 2002).

Molecules are shown by their SMILES.

One assay concerns Hu apoAI transgenic mice. Description: Evaluation of triglyceride and cholesterol levels in Hu apoAI transgenic mice. It counts as in vivo. To be noted: for change in vivo at 30 mg/kg / inhibition in vivo at 30 mg/kg: Mus musculus, 168 h, 30 mg/kg daily oral gavage for 7 days; for change in vivo at 30 mg/kg: pooled sera, read-out: % HDLc Increase (serum, FPLC area under the curve, over vehicle); for inhibition in vivo at 30 mg/kg: serum 3 hours after dosing on day 7, read-out: % Triglyceride Decrease (serum, over mice receiving vehicle). The procedure: After an acclimation period of 2 weeks, animals were individually identified by ear notches, weighed, and assigned to groups based on body weight. Beginning the following morning, mice were dosed daily by oral gavage for 7 days using a 20 gauge, 11⁄2 curved disposable feeding needle (Popper & Sons). […] Prior to termination on day 7, mice were weighed and dosed. Three hours after dosing, animals were anesthetized by inhalation of isoflurane (2-4%; Abbott Laboratories, Chicago, Ill.) and blood obtained via cardiac puncture (0.7-1.0 ml). Whole blood was transferred to serum separator tubes (Vacutainer SST), chilled on ice, and permitted to clot. Serum was obtained after centrifugation at 4° C. and frozen until analysis for triglycerides, total cholesterol, compound levels, and serum lipoprotein profile by fast protein liquid chromatography (FPLC) coupled to an inline detection system. After sacrifice by cervical dislocation, the liver, heart and epididymal fat pads were excised and weighed. […] The percentage decrease in triglyceride serum levels in mice receiving a compound of the invention over mice receiving vehicle are reported in Table 2. […] The absorbance of the dye produced is linearly related to the analyte in the sample. The assays were further modified in our laboratory for use in a 96 well format. […] An additional aliquot of sample, pipetted to a third well and diluted in 200 μl water, provided a blank for each specimen. […] All samples from an experiment were assayed at the same time to minimize inter-assay variability. Serum lipoproteins were separated and cholesterol quantitated with an in-line detection system. […] The change in voltage corresponding to change in cholesterol concentration was plotted vs time and the area under the curve corresponding to the elution of VLDL, LDL and HDL was calculated using Perkin Elmer Turbochrome software.

The next assay has as its system db/db mice. Nature of the assay: Evaluation of glucose levels in db/db mice. It counts as in vivo. To be noted: Mus musculus, 168 h; 30 mg/kg daily oral gavage for 7 days; 100% = glucose not different from lean values; read-out: Glucose Normalisation. The procedure:
After an acclimation period of 2 weeks, animals were individually identified by ear notches, weighed, and bled via the tail vein for determination of initial glucose levels. Blood was collected (100 μl) from unfasted animals by wrapping each mouse in a towel, cutting the tip of the tail with a scalpel, and milking blood from the tail into a heparinized capillary tube (Fisher) balanced on the edge of the bench. Sample was discharged into a heparinized microtainer with gel separator (VWR) and retained on ice. Plasma was obtained after centrifugation at 4° C. and glucose measured immediately. Remaining plasma was frozen until the completion of the experiment, when glucose and triglycerides were assayed in all samples. Animals were grouped based on initial glucose levels and body weights. Beginning the following morning, mice were dosed daily by oral gavage for 7 days using a 20 gauge, 1½″ curved disposable feeding needle. […] On day 7, mice were weighed and bled (tail vein) 3 hours after dosing. Twenty-four hours after the 7th dose (i.e., day 8), animals were bled again (tail vein). Samples obtained from conscious animals on days 0, 7 and 8 were assayed for glucose. After the 24 hour bleed, animals were weighed and dosed for the final time. Three hours after dosing on day 8, animals were anesthetized by inhalation of isoflurane and blood obtained via cardiac puncture (0.5-0.7 ml). Whole blood was transferred to serum separator tubes, chilled on ice and permitted to clot. Serum was obtained after centrifugation at 4° C. and frozen until analysis for compound levels. After sacrifice by cervical dislocation, the liver, heart and epididymal fat pads were excised and weighed.
The absorbance of the dye produced is linearly related to the analyte in the sample. The assays were further modified in our laboratory for use in a 96 well format. […] An additional aliquot of sample, pipetted to a third well and diluted in 200 μl water, provided a blank for each specimen. […] Sample absorbances were compared to a standard curve (100-800, 10-500, and 100-400 mg/dl for glucose, triglycerides and total cholesterol, respectively). […] All samples from an experiment were assayed at the same time to minimize inter-assay variability.

A further assay has as its system huPPARα. Description: Cotransfection assay in CV-1 cells, huPPARα (GAL4 chimeric system). It counts as cell-based, human. To be noted: luciferase reporter, relative to PPARα agonist reference molecule. The procedure: DNA-dependent binding (ABCD binding) was carried out using SPA technology with PPAR receptors. Tritium-labeled PPARγ and PPARα agonists were used as radioligands for generating displacement curves and IC50 values with compounds of the invention. Cotransfection assays were carried out in CV-1 cells. The reporter plasmid contained an acylCoA oxidase (AOX) PPRE and TK promoter upstream of the luciferase reporter cDNA. Appropriate PPARs and RXRα were constitutively expressed using plasmids containing the CMV promoter. For PPARα and PPARβ, interference by endogenous PPARγ in CV-1 cells was an issue. In order to eliminate such interference, a GAL4 chimeric system was used in which the DNA binding domain of the transfected PPAR was replaced by that of GAL4, and the GAL4 response element was utilized in place of the AOX PPRE. Cotransfection efficacy was determined relative to PPARα agonist and […] reference molecules. Efficacies were determined by computer fit to a concentration-response curve, or in some cases at a single high concentration of agonist (10 μM). For binding or cotransfection studies with receptors other than PPARs, similar assays were carried out using appropriate ligands, receptors, reporter constructs, etc., for that particular receptor.
These studies were carried out to evaluate the ability of compounds of the invention to bind to and/or activate various nuclear transcription factors, particularly huPPARα (“hu” indicates “human”) and huPPARγ. These studies provide in vitro data concerning efficacy and selectivity of compounds of the invention. Furthermore, binding and cotransfection data for compounds of the invention were compared with corresponding data for marketed compounds that act on either huPPARα or huPPARγ.

Setting [1] is: fenofibrate 100 mg/kg oral, 7 days, vs vehicle.

With `CCCCc1cc(OC(C)(C)C(=O)O)ccc1OCCc1nc(-c2ccc(-c3ccccc3)cc2)oc1C` [Example 31, 2-{4-[2-(2-Biphenyl-4-yl-5-methyloxazol-4-yl)ethoxy]-3-butylphenoxy}-2-methylpropionic acid], in the assay with Hu apoAI transgenic mice, the change in vivo at 30 mg/kg was 217% and the inhibition in vivo at 30 mg/kg was found to be 66.7%. Moreover, the inhibition in vivo at 30 mg/kg in the assay on db/db mice turned out to be 89%.

On to `Cc1oc(-c2cccc(-c3ccccc3)c2)nc1CCOc1cccc(OC(C)(C)C(=O)O)c1` [Example 22, 2-{3-[2-(2-Biphenyl-3-yl-5-methyloxazol-4-yl)ethoxy]phenoxy}-2-methylpropionic acid], for which, in the assay on Hu apoAI transgenic mice, the change in vivo at 30 mg/kg was 191% and the inhibition in vivo at 30 mg/kg turned out to be 73.6%. In addition, in the assay with db/db mice, the inhibition in vivo at 30 mg/kg is 102%.

Turning to `Cc1oc(-c2cccc(-c3ccccc3)c2)nc1CCOc1ccc(OC(C)(C)C(=O)O)c2ccccc12` [Example 49, 2-{4-[2-(2-Biphenyl-3-yl-5-methyloxazol-4-yl)ethoxy]naphthalen-1-yloxy}-2-methyl propionic acid], the change in vivo at 30 mg/kg in the assay with Hu apoAI transgenic mice turned out to be 34%. The inhibition in vivo at 30 mg/kg in the assay on Hu apoAI transgenic mice turned out to be 48.7%; in the assay with db/db mice, 39%.

In the case of `Cc1oc(-c2ccc(-c3ccccc3)cc2)nc1CCOc1ccc(OC(C)(C)C(=O)O)c2c1CCCC2` [Example 50, 2-{4-[2-(2-Biphenyl-4-yl-5-methyloxazol-4-yl)-ethoxy]-5,6,7,8-tetrahydronaphthalen-1-yloxy}-2-methyl propionic acid], the change in vivo at 30 mg/kg with Hu apoAI transgenic mice came out at 95%. For the same compound, the results for the inhibition in vivo at 30 mg/kg in the assay with Hu apoAI transgenic mice and in the assay on db/db mice were 53.9% and 42%, respectively.

As for `Cc1c(C)c2c(c(C)c1O)CCC(C)(COc1ccc(CC3SC(=O)NC3=O)cc1)O2` (stereo not shown) [Troglitazone, reference compound], in the assay on huPPARα, the “huPPARα CTF Efficacy” value turned out to be 0%.

With `Cc1cc(OCCc2nc(-c3ccc(-c4ccccc4)cc3)oc2C)ccc1OC(C)(C)C(=O)O` [Example 24, 2-{4-[2-(2-Biphenyl-4-yl-5-methyloxazol-4-yl)-ethoxy]-2-methylphenoxy}-2-methylpropionic acid], in the assay with Hu apoAI transgenic mice, the change in vivo at 30 mg/kg was found to be 72% and the inhibition in vivo at 30 mg/kg was 62.3%. For the same compound, in the assay with db/db mice, the inhibition in vivo at 30 mg/kg amounted to 55%.

With `CCCc1cc(OCCc2nc(-c3ccc(-c4ccccc4)cc3)oc2C)ccc1OCC(=O)O` [Example 62, {4-[2-(2-Biphenyl-4-yl-5-methyl-oxazol-4-yl)-ethoxy]-2-propyl-phenoxy}-acetic acid], in the assay with Hu apoAI transgenic mice, the change in vivo at 30 mg/kg amounted to 56% and the inhibition in vivo at 30 mg/kg stood at 45.5%. Besides, the inhibition in vivo at 30 mg/kg in the assay with db/db mice was found to be 36%.

Turning to `Cc1oc(-c2ccc(-c3ccccc3)cc2)nc1CCOc1ccc(OC(C)(C)C(=O)O)c2ccccc12` [Example 48, 2-{4-[2-(2-Biphenyl-4-yl-5-methyloxazol-4-yl)ethoxy]naphthalen-1-yloxy}-2-methyl propionic acid], in the assay with Hu apoAI transgenic mice, the change in vivo at 30 mg/kg is 89% and the inhibition in vivo at 30 mg/kg amounted to 43.7%. The inhibition in vivo at 30 mg/kg in the assay with db/db mice was 31%.

With `Cc1oc(-c2ccc(-c3ccccc3)cc2)nc1CCOc1ccc(OC(C)(C)C(=O)O)c(-c2ccccc2)c1` [Example 38, 2-{5-[2-(2-Biphenyl-4-yl-5-methyloxazol-4-yl)-ethoxy]-biphenyl-2-yloxy}-2-methyl-propionic acid], the change in vivo at 30 mg/kg with Hu apoAI transgenic mice stood at 34%. The values for the inhibition in vivo at 30 mg/kg with Hu apoAI transgenic mice and in the assay with db/db mice were 53.3% and 59%, respectively.

Regarding `CC(C)OC(=O)C(C)(C)Oc1ccc(C(=O)c2ccc(Cl)cc2)cc1` [fenofibrate, reference compound], in the assay with Hu apoAI transgenic mice (setting [1]), the “mean elevation of total serum cholesterol” value stood at 41%, the “mean percent increase of HDLc” value was found to be 48% and the “mean reduction of triglycerides” value was determined as 37%. In addition, the “HDLc peak area (FPLC)” value with Hu apoAI transgenic mice (fenofibrate 100 mg/kg oral, 7 days, vehicle 47-62 v-sec) was 68-96 v-sec. For the same compound, the average triglycerides values with Hu apoAI transgenic mice (fenofibrate 100 mg/kg oral, 7 days, vehicle 60-80 mg/dl) is 33 to 58 mg/dL. Moreover, in the assay with Hu apoAI transgenic mice (fenofibrate 100 mg/kg oral, 7 days, vehicle 148-180 mg/dl), the “average total serum cholesterol values” was 190 to 280 mg/dL.

Consider `Cc1oc(-c2cccc(-c3ccccc3)c2)nc1CCOc1ccc(OC(C)(C)C(=O)O)cc1` [Example 3, 2-{4-[2-(2-Biphenyl-3-yl-5-methyloxazol-4-yl)ethoxy]phenoxy}-2-methylpropionic acid], for which, in the assay on Hu apoAI transgenic mice, the change in vivo at 30 mg/kg is 69% and the inhibition in vivo at 30 mg/kg is 51.2%. In addition, the inhibition in vivo at 30 mg/kg in the assay with db/db mice stood at 93%.

`Cc1oc(-c2ccc(-c3ccccc3)cc2)nc1CCOc1ccc(OC(C)(C)C(=O)O)cc1` [Example 1, 2-{4-[2-(2-Biphenyl-4-yl-5-methyloxazol-4-yl)ethoxy]phenoxy}-2-methylpropionic acid]: the change in vivo at 30 mg/kg in the assay on Hu apoAI transgenic mice came to 160%. Moreover, the inhibition in vivo at 30 mg/kg in the assay with Hu apoAI transgenic mice stood at 62.2%; with db/db mice, 90%.

For the compound `Cc1oc(-c2ccc(-c3ccccc3C(F)(F)F)cc2)nc1CCOc1ccc(OC(C)(C)C(=O)O)cc1` [Example 12, 2-Methyl-2-(4-{2-[5-methyl-2-(2′-trifluoromethyl-biphenyl-4-yl)-oxazol-4-yl]-ethoxy}-phenoxy)propionic acid], the change in vivo at 30 mg/kg with Hu apoAI transgenic mice was 29%. Also, the results for the inhibition in vivo at 30 mg/kg with Hu apoAI transgenic mice and in the assay with db/db mice were 37.6% and 44%, respectively.

For the compound `CCCc1cc(OCCc2nc(-c3ccc(-c4ccccc4)cc3)oc2C)ccc1OC(C)(C)C(=O)O` [Example 60, 2-{4-[2-(2-Biphenyl-4-yl-5-methyloxazol-4-yl)-ethyloxy]-2-propylphenoxy}-2-methyl-propionic acid], in the assay with Hu apoAI transgenic mice, the change in vivo at 30 mg/kg is 38%. Moreover, the inhibition in vivo at 30 mg/kg in the assay on Hu apoAI transgenic mice was determined as 40.8%; with db/db mice it was 68%.

In the case of `Cc1oc(-c2ccc(-c3cccc4ccccc34)cc2)nc1CCOc1ccc(OC(C)(C)C(=O)O)cc1` [Example 8, 2-Methyl-2-(4-{2-[5-methyl-2-(4-naphthalen-1-ylphenyl)oxazol-4-yl]ethoxy}phenoxy)propionic acid], the change in vivo at 30 mg/kg in the assay on Hu apoAI transgenic mice came to 41%. For the same compound, the figures for the inhibition in vivo at 30 mg/kg in the assay with Hu apoAI transgenic mice and in the assay with db/db mice were 31.8% and 19%, respectively.

Consider `Cc1oc(-c2cccc(-c3ccccc3)c2)nc1CCOc1ccc(OC(C)(C)C(=O)O)c2c1CCCC2` [Example 51, 2-{4-[2-(2-Biphenyl-3-yl-5-methyloxazol-4-yl)-ethoxy]-5,6,7,8-tetrahydronaphthalen-1-yloxy}-2-methyl propionic acid], for which, in the assay on Hu apoAI transgenic mice, the change in vivo at 30 mg/kg worked out at 53%. Besides, the inhibition in vivo at 30 mg/kg in the assay with Hu apoAI transgenic mice is 41.6%; in the assay with db/db mice it was 31%.
